The values below come from patent US20260263334A1, “COMPOSITIONS CONTAINING NITRATE-RICH FOODS AND EXTRACTS FOR SHIFTING THE ORAL MICROBIOME” (WM. WRIGLEY JR. COMPANY, priority 2023, published 2026).

One experiment has as its system salivary bacteria. The experiment can be described thus: nitrate reductase (NR) activity of human salivary bacteria (Griess reagent). It is filed as cell-based. Here is the method: Human stimulated saliva was collected from two subjects and tested for NR activity in the presence of nitrate, cysteine and a combination of nitrate and cysteine. The Griess test was used for nitrite production.
Two subjects were evaluated in this study. The subjects refrained from oral hygiene and eating the night before and morning of the test and their stimulated saliva was collected after chewing 1 g of gum base for 5 minutes. The saliva samples were stored immediately on ice, diluted 1:1 with D.I. H2O and used as a bacterial source for nitrate reductase (NR) activity testing under anaerobic condition.
The contents in each reaction mixture contained (mL):
Detection of the end product of NR and nitrite was by the Griess reagent at OD550 nm readings.
Background: Griess reagent forms a coloured azo dye with nitrite.

Experiment [1] has as its system Aggregatibacter actinomycetemcomitans (A.a.). The experiment can be described thus: nitrate reductase (NR) activity of A.a. (Griess test). The conditions noted are these: for NR activity (OD) of A.a in the presence of cysteine: Cysteine 1%, 0.3% nitrate source. It is filed as cell-based. Here is the method: (§1) For evaluation of nitric oxide producing capability of oral bacteria, overnight cultures of test organisms were washed once and transferred into a medium without any nitrate or nitrite compounds. A 0.5% (or 1%) KNO3 was added to the medium, and further incubated anaerobically at 37° C. for 24-48 hours. The concentration of nitrite (due to reduction of nitrate by nitrate reductase) was determined by Griess Test over a desired period of time.
(§2) To examine the effect of natural and chemical antimicrobial agents on NO production, test bacteria were pre-exposed to magnolia bark extract (MBE) (a natural germ-kill compound), peppermint oil, and chlorhexidine (CHX). The activities of nitrate reductase from oral bacteria were assayed by Griess test as described above. No treatment controls were included for each test bacterial species. The production of nitrite was reduced if the test antimicrobial compounds affected the nitrate reductase activity. Dose response curves were prepared.
A. actinomycetemcomitans (A.a.) was grown anaerobically in THB broth supplemented with 1% yeast extract with 0.001% Hemin, and 0.0001% Vitamin K.
The nitrate source KNO3 (0.1% final) was added to respective growth media for individual test bacteria and incubated for 24-48 hours, then 20 μl of the culture broth was withdrawn and tested for nitrite with Griess reagent.
Test bacteria were grown in respective media anaerobically for 48 hours. Cells were centrifuged and re-suspended in buffer or fresh medium for NR activity testing. […]
(§3) Test bacteria cells were incubated with 1% cysteine in growth medium and 0.3% of a nitrate source. Controls contained no cysteine.

The subject of the next experiment is saliva. The experiment is described as follows: ex vivo production of H2S by saliva (headspace, gas chromatograph with chemiluminescent sulfur detector). In kind it is cell-based, human. The conditions noted are these: saliva mixed with cysteine.
In experiment [2] the test system is Veillonella atypica (ATCC 17744) (V.a.). The experiment can be described thus: nitrate reductase (NR) activity of V.a (Griess test). In kind it is cell-based. As to conditions: Cysteine 1%. Here is the method:
as §1, §2
V. atypica was grown in RCM medium without (NH4)2SO4 (to avoid the NH4 affecting Griess reagent); and without agar (0.05%, to avoid affecting the OD measurement).
The method used was the same as that for A.a., except the V.a cell concentration was adjusted to OD550 nm=0.7 (10^8 CFR/ml) in Reduced Transport buffer. The NR activity was also determined in the same buffer system. […]
as §3

With `O=[N+]([O-])[O-].[K+]` [KNO3, potassium nitrate], in the experiment with salivary bacteria (KNO3 3%, saliva of two subjects), the “NR activity of salivary bacteria (nitrite production)” value is “induced NR activity”.

Consider `N[C@@H](CS)C(=O)O` [cysteine, L-cysteine], for which the “NR activity (OD) of A.a in the presence of cysteine” value was determined as 0.207 OD in experiment [1] (1st trial, 2 hr); 0.672 OD in experiment [1] (1st trial, 3 hr); 0.994 OD in experiment [1] (2nd trial, 2 hr); 0.928 OD in experiment [1] (2nd trial, 3 hr); 0.832 OD in experiment [1] (3rd trial, 2 hr); 0.919 OD in experiment [1] (3rd trial, 3 hr). For the same compound, in experiment [1] (addition of cysteine (1%)), the “NR activity of A.a” value is given as “not significantly affected”. Also, the “H2S generated in the headspace air” value in the experiment with saliva was found to be 20 ppm. Further, the “reduction of NR activity” value with salivary bacteria (addition of cysteine, pooled saliva from 4 subjects, OD600 nm=0.7, 1.0 and 1.5) is 23-49%. Moreover, in the experiment on salivary bacteria (cysteine 0.25% in addition to nitrate (KNO3 3%), saliva of two subjects), the “NR activity of salivary bacteria” value is listed as “decrease in NR activity”. The “NR activity (OD) of V.a in the presence of cysteine” value is 0.372 OD in experiment [2] (1st trial, 2 hr); 0.711 OD in experiment [2] (1st trial, 3 hr); 0.487 OD in experiment [2] (2nd trial, 2 hr); 0.808 OD in experiment [2] (2nd trial, 3 hr); 1.139 OD in experiment [2] (3rd trial, 2 hr); 1.144 OD in experiment [2] (3rd trial, 3 hr).
